This is an account of results in patent US12435044B2, “Pyridazinone herbicides and pyridazinone intermediates used to prepare a herbicide” (FMC Corporation, priority 2018, dated 2025).

What all share (type): in vivo
Assay [1] relates to ryegrass, Italian (Lolium multiflorum). Put plainly: Test D postemergence controlled growth environment test. The text has this:
Seeds of plant species selected from blackgrass (Alopecurus myosuroides), galium (catchweed bedstraw, Galium aparine), kochia (Kochia scoparia), oilseed rape (Brassica napus), barley, spring (Hordeum vulgare), wheat, spring (Triticum aestivum), oat, wild (Avena fatua), barley, winter (Hordeum vulgare) and wheat, winter (Triticum aestivum) were planted into a silt loam soil and treated preemergence with test chemicals formulated in a non-phytotoxic solvent mixture which included a surfactant.
At the same time, plants selected from these crop and weed species and also bluegrass (annual bluegrass, Poa annua), canarygrass (littleseed canarygrass, Phalaris minor), chickweed (common chickweed, Stellaria media), bromegrass, downy (downy bromegrass, Bromus tectorum), field poppy (Papaver rhoeas), field violet (Viola arvensis), foxtail, green (Setaria viridis), deadnettle (henbit deadnettle, Lamium amplexicaule), ryegrass, Italian (Lolium multiflorum), lambsquarters (Chenopodium album), pigweed (Amaranthus retroflexus), chamomile (scentless chamomile, Matricaria inodora), Russian thistle (Salsola kali), speedwell (bird's-eye speedwell, Veronica persica), buckwheat, wild (Polygonum convolvulus), mustard, wild (Sinapis arvensis), radish, wild (Raphanus raphanistrum), windgrass (Apera spica-venti), geranium, cutleaf (Geranium dissectum) and Canada thistle (Cirsium arvense) were planted in pots containing Redi-Earth® planting medium (Scotts Company, 14111 Scottslawn Road, Marysville, Ohio 43041) comprising spaghnum peat moss, vermiculite, wetting agent and starter nutrients and treated with postemergence applications of the test chemicals formulated in the same manner. Plants ranged in height from 2 to 18 cm (1- to 4-leaf stage). Treated plants and controls were maintained in a controlled growth environment for 14 to 21 d after which time all species were compared to controls and visually evaluated. Plant response ratings, summarized in Table D, are based on a scale of 0 to 100 where 0 is no effect and 100 is complete control. A dash (-) response means no test result.

In assay [2] the test system is corn (ZEAMD; Zea mays, cv. ‘Pioneer 1184’). In words: Test of Tables L1 to L3, postemergence, mixtures of Cpd. No. 20 with benoxacor, isoxadifen-ethyl, or cloquintocet-mexyl. Conditions: for Plant response rating (0 to 100 scale) ZEAMD: approx. 14 d. The text has this:
(§1) This test evaluated the effect of mixtures of Cpd. No. 20 with benoxacor, isoxadifen-ethyl, or cloquintocet-mexyl on several plant species. Seeds of plant species selected from corn (ZEAMD; Zea mays, cv. ‘Pioneer 1184’), soybean (GLXMA; Glycine max, cv. Pioneer 35T58), winter wheat (TRZAW; Triticum aetivum, cv. Arezzo), rice (ORYSS; Oryza sativa, cv. M202), and giant foxtail (SETFA; Setaria faberi) were planted in pots containing Redi-Earth® planting medium (Scotts Company, 14111 Scottslawn Road, Marysville, Ohio 43041) comprising spaghnum peat moss, vermiculite, wetting agent and starter nutrients and treated postemergence using test chemicals formulated in a non-phytotoxic solvent mixture which included a surfactant. Plants ranged in height from 7 to 10 cm and were in the one- to two-leaf stage for the postemergence treatment. Treated plants and untreated controls were maintained in a greenhouse for approximately 14 d, after which time all treated plants were compared to untreated controls and visually evaluated for injury. Plant response ratings, summarized in Tables L1 to L3, are based on a 0 to 100 scale where 0 is no effect and 100 is complete control. A dash (-) response means no test result. Test results are presented as a mean of 4 reps.

Assay [3] has as its system rice (ORYSS; Oryza sativa, cv. M202). The description is as above. The conditions noted are these: for Plant response rating (0 to 100 scale) ORYSS: approx. 14 d.
Excerpt: as §1

The test system of assay [4] is soybean (GLXMA; Glycine max, cv. Pioneer 35T58). The description is as above. Conditions: for Plant response rating (0 to 100 scale) GLXMA: approx. 14 d.
Excerpt: as §1

For assay [5], the system named is winter wheat (TRZAW; Triticum aetivum, cv. Arezzo). The description is as above. Conditions: for Plant response rating (0 to 100 scale) TRZAW: approx. 14 d.
Excerpt: as §1

Assay [6] relates to nightshade (eastern black nightshade, Solanum ptycanthum). In words: Test C postemergence greenhouse test. Conditions: scale 0 to 100. The text has this:
(§2) Seeds of plant species selected from blackgrass (Alopecurus myosuroides), ryegrass, Italian (Lolium multiflorum), wheat, winter (winter wheat, Triticum aestivum), galium (catchweed bedstraw, Galium aparine), corn (Zea mays), crabgrass, large (Digitaria sanguinalis), foxtail, giant (Setaria faberii), johnsongrass (Sorghum halepense), lambsquarters (Chenopodium album), morningglory (Ipomoea coccinea), nutsedge, yellow (Cyperus esculentus), pigweed (Amaranthus retroflexus), ragweed (common ragweed, Ambrosia elatior), soybean (Glycine max), barnyardgrass (Echinochloa crus-galli), oilseed rape (Brassica napus), waterhemp (common waterhemp, Amaranthus rudis), pigweed, palmer (Amaranthus palmeri), kochia (Kochia scoparia), oat, wild (Avena fatua), surinam grass (Brachiaria decumbens), windgrass (Apera spica-venti), poinsettia, wild (Euphorbia heterophylla) and velvetleaf (Abutilon theophrasti) were planted into a silt loam soil and treated preemergence with test chemicals formulated in a non-phytotoxic solvent mixture which included a surfactant.
(§3) At the same time, plants selected from these crop and weed species and also chickweed (common chickweed, Stellaria media), buckwheat, wild (Polygonum convolvulus), mustard, wild (Sinapis arvensis), field poppy (Papaver rhoeas), field violet (Viola arvensis), nightshade (eastern black nightshade, Solanum ptycanthum), speedwell (bird's-eye speedwell, Veronica persica), horseweed (Conyza canadensis), cutleaf geranium (Geranium dissectum), and Canada thistle (Cirsium arvense) were planted in pots containing Redi-Earth® planting medium (Scotts Company, 14111 Scottslawn Road, Marysville, Ohio 43041) comprising spaghnum peat moss, vermiculite, wetting agent and starter nutrients and treated with postemergence applications of test chemicals formulated in the same manner. Plants ranged in height from 2 to 18 cm (1- to 4-leaf stage) for postemergence treatments. Treated plants and controls were maintained in a greenhouse for 13 to 21 d, after which time all species were compared to controls and visually evaluated. Plant response ratings, summarized in Table C-1 (postemergence) and C-2 (preemergence), are based on a scale of 0 to 100 where 0 is no effect and 100 is complete control. A dash (-) response means no test result.

Assay [7] has as its system horseweed (Conyza canadensis). Put plainly: Test C postemergence greenhouse test. Conditions: scale 0 to 100.
Excerpt: as §2, §3

Setting [8] is: Cpd. No. 20 alone 125 g a.i./ha.
[9] abbreviates: Cpd. No. 20 alone 250 g a.i./ha.
[10] abbreviates: Cpd. No. 20 alone 375 g a.i./ha.

Structures are written as SMILES.

Consider `Cc1ccc2ccc(C)c(-c3c(O)c(Cl)nn(C)c3=O)c2c1` [Cpd. No. 20, 6-chloro-4-(2,7-dimethyl-1-naphthalenyl)-5-hydroxy-2-methyl-3(2H)-pyridazinone], for which the “Plant response rating, Ryegrass, Italian” value in assay [1] (16 g ai/ha) is on record as 65; in assay [1] (31 g ai/ha) it was 75; in assay [1] (62 g ai/ha), 80; in assay [1] (125 g ai/ha), 90. Besides, the entries for the “ZEAMD plant response rating, 0 to 100 scale” value in assay [2] (125 g a.i./ha), in assay [2] (250 g a.i./ha) and in assay [2] (375 g a.i./ha) were 8, 1 and 34, respectively. Also, the “Plant response rating (0 to 100 scale) ZEAMD” value in assay [2] (setting [8]) stood at 8; in assay [2] (setting [9]), 1; in assay [2] (setting [10]), 34. Further, the “ORYSS plant response rating, 0 to 100 scale” value is on record as 5 in assay [3] (125 g a.i./ha), 18 in assay [3] (250 g a.i./ha) and 23 in assay [3] (375 g a.i./ha). In addition, the “Plant response rating (0 to 100 scale) ORYSS” value in assay [3] (setting [8]) is reported as 5; in assay [3] (setting [9]), 18; in assay [3] (setting [10]), 23. Besides, the “GLXMA plant response rating, 0 to 100 scale” value was 15 in assay [4] (125 g a.i./ha), 29 in assay [4] (250 g a.i./ha) and 39 in assay [4] (375 g a.i./ha). The figures for the “Plant response rating (0 to 100 scale) GLXMA” value in assay [4] (setting [8]), in assay [4] (setting [9]) and in assay [4] (setting [10]) were 15, 29 and 39, respectively. In addition, the “TRZAW plant response rating, 0 to 100 scale” value in assay [5] (125 g a.i./ha) was determined as 28; in assay [5] (250 g a.i./ha) it was 36; in assay [5] (375 g a.i./ha) it was 39. In addition, the “Plant response rating (0 to 100 scale) TRZAW” value in assay [5] (setting [8]) is given as 28; in assay [5] (setting [9]) it was 36; in assay [5] (setting [10]), 39.

Consider `Cc1cc(Cl)c2ccccc2c1-c1c(O)c(Cl)nn(C)c1=O` [Cpd. No. 65], for which the “Plant response rating, Nightshade” value in assay [6] (16 g ai/ha) is reported as 90; in assay [6] (31 g ai/ha) it was 100; in assay [6] (62 g ai/ha), 100; in assay [6] (125 g ai/ha) it was 100.

In the case of `Cc1ccc2ccc(F)cc2c1-c1c(O)c(Cl)nn(C)c1=O` [Cpd. No. 21], the “Plant response rating, Horseweed” value was found to be 80 in assay [7] (16 g ai/ha), 85 in assay [7] (31 g ai/ha), 90 in assay [7] (62 g ai/ha) and 90 in assay [7] (125 g ai/ha).
